Laboratory results from patent US12612407B2, “Imidazo[2,1-f][1,2,4]triazin-4-amine derivatives as TLR7 agonist” (BEIGENE, LTD., priority 2020, dated 2026).

What follows are compounds tested against T1, human TLR7 (Homo sapiens, UniProt Q9NYK1) (assay: HEK293-Blue hTLR7 Reporter Assay (QUANTI-BLUE, SEAP readout)). Settings: HEK-Blue-hTLR7 cells, 24 hrs treatment, Table 1, B1-B232.
T1 construct: host or cells: HEK293 (HEK-Blue hTLR7)
T1 sequence (Q9NYK1 27-1049): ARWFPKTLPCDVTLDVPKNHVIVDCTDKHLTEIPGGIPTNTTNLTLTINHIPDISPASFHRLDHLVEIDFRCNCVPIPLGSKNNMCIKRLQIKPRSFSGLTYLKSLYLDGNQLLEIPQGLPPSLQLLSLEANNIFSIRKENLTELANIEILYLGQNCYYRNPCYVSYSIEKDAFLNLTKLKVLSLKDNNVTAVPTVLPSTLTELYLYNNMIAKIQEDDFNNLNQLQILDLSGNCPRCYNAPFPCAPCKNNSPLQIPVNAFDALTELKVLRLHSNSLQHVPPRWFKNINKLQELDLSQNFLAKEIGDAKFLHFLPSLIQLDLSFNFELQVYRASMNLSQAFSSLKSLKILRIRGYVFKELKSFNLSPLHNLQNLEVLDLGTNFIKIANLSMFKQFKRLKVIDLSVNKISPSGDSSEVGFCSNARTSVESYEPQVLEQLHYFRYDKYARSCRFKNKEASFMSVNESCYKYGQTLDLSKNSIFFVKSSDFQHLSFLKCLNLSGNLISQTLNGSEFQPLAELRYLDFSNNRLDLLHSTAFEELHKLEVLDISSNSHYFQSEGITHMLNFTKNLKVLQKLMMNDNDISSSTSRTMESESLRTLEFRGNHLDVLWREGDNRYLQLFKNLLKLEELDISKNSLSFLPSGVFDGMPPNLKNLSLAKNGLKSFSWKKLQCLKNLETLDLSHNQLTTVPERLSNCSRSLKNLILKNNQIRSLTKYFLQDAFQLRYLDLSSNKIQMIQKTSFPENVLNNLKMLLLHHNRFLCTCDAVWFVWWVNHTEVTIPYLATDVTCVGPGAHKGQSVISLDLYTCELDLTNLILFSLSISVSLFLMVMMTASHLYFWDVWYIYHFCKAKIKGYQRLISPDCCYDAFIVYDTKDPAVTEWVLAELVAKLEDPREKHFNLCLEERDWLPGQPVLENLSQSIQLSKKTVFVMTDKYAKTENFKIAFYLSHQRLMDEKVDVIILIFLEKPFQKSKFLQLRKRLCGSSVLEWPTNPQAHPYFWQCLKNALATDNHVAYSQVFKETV
Assay type: cell-based
Summary of the method: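 HEK-Blue-hTLR7 cells expressing NF-κB/AP-1-driven SEAP, 4×10^4 cells/well, treated 24 h at 37° C with increasing compound concentrations. Supernatant SEAP measured with Quanti-blue substrate (10-30 min, 37° C) at 620-655 nm; EC50 from sigmoidal dose-response fit.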

Compound	EC50 [nM]
CCCCOc1nc(N)c2ncc(Cc3cnc(N4CCC(CN5CCOCC5)CC4)c(C)c3)n2n1 [Compound B109, 2-butoxy-7-((5-methyl-6-(4-(morpholinomethyl)piperidin-1-yl)pyridin-3-yl)methyl)imidazo[2,1-f][1,2,4]triazin-4-amine]	161
CCCCOc1nc(N)c2ncc(Cc3cnc(N4CCC(CCN(C)C)CC4)c(C)c3)n2n1 [Compound B110, 2-butoxy-7-((6-(4-(2-(dimethylamino)ethyl)piperidin-1-yl)-5-methylpyridin-3-yl)methyl)imidazo[2,1-f][1,2,4]triazin-4-amine]	43
CCCC(C)Oc1nc(N)c2ncc(Cc3cnc(N4CCN(C(=O)CNC)CC4)c(C)c3)n2n1 (centres unmarked) [Compound B111, 1-(4-(5-((4-amino-2-(pentan-2-yloxy)imidazo[2,1-f][1,2,4]triazin-7-yl)methyl)-3-methylpyridin-2-yl)piperazin-1-yl)-2-(methylamino)ethan-1-one]	9.8
CCC(C)Oc1nc(N)c2ncc(Cc3cnc(N4CCNCC4)c(C)c3)n2n1 (centres unmarked) [Compound B112, 2-(sec-butoxy)-7-((5-methyl-6-(piperazin-1-yl)pyridin-3-yl)methyl)imidazo[2,1-f][1,2,4]triazin-4-amine]	37
CCC(C)COc1nc(N)c2ncc(Cc3cnc(N4CCNCC4)c(C)c3)n2n1 (centres unmarked) [Compound B113, 7-((5-methyl-6-(piperazin-1-yl)pyridin-3-yl)methyl)-2-(2-methylbutoxy)imidazo[2,1-f][1,2,4]triazin-4-amine]	447
CCCCOc1nc(N)c2ncc(Cc3cnc(N4CCN(CC)CC4)c(C)c3)n2n1 [Compound B114, 2-butoxy-7-((6-(4-ethylpiperazin-1-yl)-5-methylpyridin-3-yl)methyl)imidazo[2,1-f][1,2,4]triazin-4-amine]	168
CCCCOc1nc(N)c2ncc(Cc3cnc(N4CCN(CCc5ccccc5)CC4)c(C)c3)n2n1 [Compound B116, 2-butoxy-7-((5-methyl-6-(4-phenethylpiperazin-1-yl)pyridin-3-yl)methyl)imidazo[2,1-f][1,2,4]triazin-4-amine]	1190
CCC[C@@H](C)Oc1nc(N)c2ncc(Cc3cnc(N4CCNCC4)c(C)c3)n2n1 [Compound B117, (R)-7-((5-methyl-6-(piperazin-1-yl)pyridin-3-yl)methyl)-2-(pentan-2-yloxy)imidazo[2,1-f][1,2,4]triazin-4-amine]	62
COCCOCCOc1nc(N)c2ncc(Cc3cnc(N4CCNCC4)c(C)c3)n2n1 [Compound B119, 2-(2-(2-methoxyethoxy)ethoxy)-7-((5-methyl-6-(piperazin-1-yl)pyridin-3-yl)methyl)imidazo[2,1-f][1,2,4]triazin-4-amine]	> 10000
COCCOCCOCCOCCOCCOCCOc1nc(N)c2ncc(Cc3cnc(N4CCNCC4)c(C)c3)n2n1 [Compound B120, 2-((2,5,8,11,14,17-hexaoxanonadecan-19-yl)oxy)-7-((5-methyl-6-(piperazin-1-yl)pyridin-3-yl)methyl)imidazo[2,1-f][1,2,4]triazin-4-amine]	> 10000
CCCCOc1nc(N)c2ncc(Cc3cnc(N4CCC(CN5CCCC5)CC4)c(C)c3)n2n1 [Compound B121, 2-butoxy-7-((5-methyl-6-(4-(pyrrolidin-1-ylmethyl)piperidin-1-yl)pyridin-3-yl)methyl)imidazo[2,1-f][1,2,4]triazin-4-amine]	31
CCC[C@@H](C)Oc1nc(N)c2ncc(Cc3cnc(N4CCN(C(=O)CN(C)C)CC4)c(C)c3)n2n1 [Compound B124, (R)-1-(4-(5-((4-amino-2-(pentan-2-yloxy)imidazo[2,1-f][1,2,4]triazin-7-yl)methyl)-3-methylpyridin-2-yl)piperazin-1-yl)-2-(dimethylamino)ethan-1-one]	51
CCC[C@H](C)Oc1nc(N)c2ncc(Cc3cnc(N4CCN(C(=O)CN(C)C)CC4)c(C)c3)n2n1 [Compound B125, (S)-1-(4-(5-((4-amino-2-(pentan-2-yloxy)imidazo[2,1-f][1,2,4]triazin-7-yl)methyl)-3-methylpyridin-2-yl)piperazin-1-yl)-2-(dimethylamino)ethan-1-one]	2.5
CCCCOc1nc(N)c2ncc(Cc3cnc(N4CCC(CN(CC)CC)CC4)c(C)c3)n2n1 [Compound B126, 2-butoxy-7-((6-(4-((diethylamino)methyl)piperidin-1-yl)-5-methylpyridin-3-yl)methyl)imidazo[2,1-f][1,2,4]triazin-4-amine]	22
CCC[C@@H](C)Oc1nc(N)c2ncc(Cc3cnc(N4CCC(N(C)C)CC4)c(C)c3)n2n1 [Compound B127, (R)-7-((6-(4-(dimethylamino)piperidin-1-yl)-5-methylpyridin-3-yl)methyl)-2-(pentan-2-yloxy)imidazo[2,1-f][1,2,4]triazin-4-amine]	56
CCC[C@@H](C)Oc1nc(N)c2ncc(Cc3cnc(N4CCC(CN(C)C)CC4)c(C)c3)n2n1 [Compound B128, (R)-7-((6-(4-((dimethylamino)methyl)piperidin-1-yl)-5-methylpyridin-3-yl)methyl)-2-(pentan-2-yloxy)imidazo[2,1-f][1,2,4]triazin-4-amine]	41
CCCCCCCCCCCCCCCCCC(=O)N1CCN(c2ncc(Cc3cnc4c(N)nc(OCCCC)nn34)cc2C)CC1 [Compound B129, 1-(4-(5-((4-amino-2-butoxyimidazo[2,1-f][1,2,4]triazin-7-yl)methyl)-3-methylpyridin-2-yl)piperazin-1-yl)octadecan-1-one]	> 10000
CCCCOc1nc(N)c2ncc(Cc3cnc(N4CCC(N5CCN(C)CC5)CC4)c(C)c3)n2n1 [Compound B130, 2-butoxy-7-((5-methyl-6-(4-(4-methylpiperazin-1-yl)piperidin-1-yl)pyridin-3-yl)methyl)imidazo[2,1-f][1,2,4]triazin-4-amine]	38
CCCCOc1nc(N)c2ncc(Cc3cnc(N4CCC5(CCNCC5)CC4)c(C)c3)n2n1 [Compound B131, 2-butoxy-7-((5-methyl-6-(3,9-diazaspiro[5.5]undecan-3-yl)pyridin-3-yl)methyl)imidazo[2,1-f][1,2,4]triazin-4-amine]	98
CCCCOc1nc(N)c2ncc(Cc3cnc(N4CCN[C@@H](C)C4)c(C)c3)n2n1 [Compound B132, (S)-2-butoxy-7-((5-methyl-6-(3-methylpiperazin-1-yl)pyridin-3-yl)methyl)imidazo[2,1-f][1,2,4]triazin-4-amine]	48
CCCC(C)Oc1nc(N)c2ncc(Cc3cnc(N4CCC(N(C)C)CC4)c(C)c3)n2n1 (centres unmarked) [Compound B133, 7-((6-(4-(dimethylamino)piperidin-1-yl)-5-methylpyridin-3-yl)methyl)-2-(pentan-2-yloxy)imidazo[2,1-f][1,2,4]triazin-4-amine]	5.6
CCCC(C)Oc1nc(N)c2ncc(Cc3cnc(N4CCC(CN(C)C)CC4)c(C)c3)n2n1 (centres unmarked) [Compound B134, 7-((6-(4-((dimethylamino)methyl)piperidin-1-yl)-5-methylpyridin-3-yl)methyl)-2-(pentan-2-yloxy)imidazo[2,1-f][1,2,4]triazin-4-amine]	6
CCCCNc1nc(N)c2ncc(Cc3cnc(N4CCC(N(C)C)CC4)c(C)c3)n2n1 [Compound B135, N2-butyl-7-((6-(4-(dimethylamino)piperidin-1-yl)-5-methylpyridin-3-yl)methyl)imidazo[2,1-f][1,2,4]triazine-2,4-diamine]	22
CCCCOc1nc(N)c2ncc(Cc3cnc(N4CC(N)C4)c(C)c3)n2n1 [Compound B136, 7-((6-(3-aminoazetidin-1-yl)-5-methylpyridin-3-yl)methyl)-2-butoxyimidazo[2,1-f][1,2,4]triazin-4-amine]	4980
CCCC(C)Nc1nc(N)c2ncc(Cc3cnc(N4CCC(CN(C)C)CC4)c(C)c3)n2n1 (centres unmarked) [Compound B137, 7-((6-(4-((dimethylamino)methyl)piperidin-1-yl)-5-methylpyridin-3-yl)methyl)-N2-(pentan-2-yl)imidazo[2,1-f][1,2,4]triazine-2,4-diamine]	4.1
CCCC(C)Nc1nc(N)c2ncc(Cc3cnc(N4CCC(N(C)C)CC4)c(C)c3)n2n1 (centres unmarked) [Compound B138, 7-((6-(4-(dimethylamino)piperidin-1-yl)-5-methylpyridin-3-yl)methyl)-N^2-(pentan-2-yl)imidazo[2,1-f][1,2,4]triazine-2,4-diamine]	5.5
